29 molecules from ChEMBL document CHEMBL5512690, “Identification and Validation of PKR as a Direct Target for the Novel Sulfonamide-Substituted Tetrahydroquinoline Nonselective Inhibitor of the NLRP3 Inflammasome” (J Med Chem, 2024) can be followed below.

By CC50 is commonly meant the concentration that lowers cell viability or growth by half. The low end stands for harm at low concentration, the high end for better tolerance by the cells. As a reminder, the IC50 is the concentration that gives 50% inhibition. A lower IC50 goes with inhibition by little substance.

Chain of NACHT, LRR and PYD domains-containing protein 3 (Q96P20 whole entry, the tested form may be a part): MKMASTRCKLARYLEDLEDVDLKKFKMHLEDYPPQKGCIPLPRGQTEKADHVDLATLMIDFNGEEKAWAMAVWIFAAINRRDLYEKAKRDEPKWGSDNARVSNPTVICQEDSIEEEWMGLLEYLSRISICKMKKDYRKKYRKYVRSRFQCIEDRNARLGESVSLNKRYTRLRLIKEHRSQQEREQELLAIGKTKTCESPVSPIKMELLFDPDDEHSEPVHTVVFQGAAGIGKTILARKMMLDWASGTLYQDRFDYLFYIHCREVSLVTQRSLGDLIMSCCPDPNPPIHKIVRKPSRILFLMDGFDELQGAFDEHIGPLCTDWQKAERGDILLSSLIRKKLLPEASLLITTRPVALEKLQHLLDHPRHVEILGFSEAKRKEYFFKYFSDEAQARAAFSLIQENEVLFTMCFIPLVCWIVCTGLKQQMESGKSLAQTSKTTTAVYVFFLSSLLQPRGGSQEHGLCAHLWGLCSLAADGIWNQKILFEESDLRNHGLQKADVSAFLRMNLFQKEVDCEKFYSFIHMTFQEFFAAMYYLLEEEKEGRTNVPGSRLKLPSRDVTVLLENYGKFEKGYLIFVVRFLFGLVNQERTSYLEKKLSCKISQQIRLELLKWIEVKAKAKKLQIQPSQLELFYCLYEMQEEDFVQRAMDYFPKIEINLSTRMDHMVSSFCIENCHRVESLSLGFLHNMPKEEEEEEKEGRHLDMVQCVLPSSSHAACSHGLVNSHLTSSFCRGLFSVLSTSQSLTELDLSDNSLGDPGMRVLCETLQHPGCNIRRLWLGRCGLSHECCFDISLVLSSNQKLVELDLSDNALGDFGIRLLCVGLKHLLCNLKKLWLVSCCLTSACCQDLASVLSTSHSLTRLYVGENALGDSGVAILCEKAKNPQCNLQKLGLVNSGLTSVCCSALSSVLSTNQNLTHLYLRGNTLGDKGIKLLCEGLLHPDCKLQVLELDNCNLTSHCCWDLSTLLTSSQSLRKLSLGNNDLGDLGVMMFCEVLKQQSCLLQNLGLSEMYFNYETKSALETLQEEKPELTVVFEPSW

Tested on in the first experiment: not listed separately
The experiment is described as follows: Cytotoxicity against human differentiated THP-M cells derived PMA induced THP-1 cells measured after 72 hrs by MTT assay. For orientation: Formazan colour is commonly taken as a measure of viable cells.
Turning to `CS(=O)(=O)N1CCCc2ccc(NS(=O)(=O)c3ccccc3F)cc21`, the CC50 was over 100 µM.

Molecule `COC(=O)c1ccsc1S(=O)(=O)Nc1ccc2c(c1)N(S(C)(=O)=O)CCC2` displayed a CC50 of over 100 µM. On the same count and under the same terms, then `CS(=O)(=O)N1CCCc2ccc(NS(=O)(=O)c3ccc(F)cc3)cc21`, with over 100 µM; and `CS(=O)(=O)N1CCCc2ccc(NS(=O)(=O)c3cccc(F)c3)cc21`, with over 100 µM; and `CS(=O)(=O)N1CCCc2ccc(NS(=O)(=O)c3ccc(Br)cc3)cc21`, with over 100 µM. Same read-out and setting: then `CS(=O)(=O)N1CCCc2ccc(NS(=O)(=O)c3ccccn3)cc21`, with over 100 µM; and `CS(=O)(=O)N1CCCc2ccc(NS(=O)(=O)c3ccccc3[N+](=O)[O-])cc21`, with over 100 µM.

As for `CS(=O)(=O)N1CCCc2ccc(NS(=O)(=O)c3ccc(C#N)cc3)cc21`, the CC50 was over 100 µM.

Consider `COc1ccc(S(=O)(=O)Nc2ccc3c(c2)N(S(C)(=O)=O)CCC3)cc1`, for which the CC50 is over 100 µM. Take `CS(=O)(=O)N1CCCc2ccc(NS(=O)(=O)Cc3ccccc3)cc21`: the CC50 was over 100 µM. Same read-out and setting: then `CS(=O)(=O)N1CCCc2ccc(NS(=O)(=O)c3cccc4ccccc34)cc21`, with over 100 µM; and `CC(C)(C)c1ccc(S(=O)(=O)Nc2ccc3c(c2)N(S(C)(=O)=O)CCC3)cc1`, with over 100 µM. Same read-out and setting: then `CS(=O)(=O)N1CCCc2ccc(NS(=O)(=O)c3ccc([N+](=O)[O-])cc3)cc21`, with over 100 µM; and `CS(=O)(=O)N1CCCc2ccc(NS(=O)(=O)c3ccc4ccccc4c3)cc21`, with over 100 µM; and `O=C(O)c1ccc(/C=C2\SC(=S)N(Cc3cccc(C(F)(F)F)c3)C2=O)cc1`, with over 100 µM. The same measure, in the same setting: then `CC(=O)c1ccc(S(=O)(=O)Nc2ccc3c(c2)N(S(C)(=O)=O)CCC3)cc1`, with over 100 µM; and `CS(=O)(=O)N1CCCc2ccc(NS(=O)(=O)c3ccccc3)cc21`, with over 100 µM. For the molecule `CS(=O)(=O)N1CCCc2ccc(NS(=O)(=O)c3cccc4cccnc34)cc21`, the CC50 is over 100 µM. Same read-out and setting: then `CS(=O)(=O)Nc1ccc2c(c1)N(S(C)(=O)=O)CCC2`, with over 100 µM; and `CS(=O)(=O)N1CCCc2ccc(NS(=O)(=O)c3ccc(Cl)cc3)cc21`, with over 100 µM. The same measure, in the same setting: then `CCS(=O)(=O)Nc1ccc2c(c1)N(S(C)(=O)=O)CCC2`, with over 100 µM. `CS(=O)(=O)N1CCCc2ccc(NS(=O)(=O)c3cc(C(F)(F)F)cc(C(F)(F)F)c3)cc21`: the CC50 is over 100 µM. On the same count and under the same terms, then `CC(=O)Nc1ccc(S(=O)(=O)Nc2ccc3c(c2)N(S(C)(=O)=O)CCC3)cc1`, with over 100 µM; and `COC(=O)c1ccc(S(=O)(=O)Nc2ccc3c(c2)N(S(C)(=O)=O)CCC3)cc1`, with over 100 µM; and `Cc1ccc(S(=O)(=O)Nc2ccc3c(c2)N(S(C)(=O)=O)CCC3)cc1`, with over 100 µM.

As for `CS(=O)(=O)N1CCCc2ccc(NS(=O)(=O)c3cccs3)cc21`, the CC50 was over 100 µM.

The molecule `CS(=O)(=O)N1CCCc2ccc(NS(=O)(=O)c3ccc(C(F)(F)F)cc3)cc21` registered a CC50 of over 100 µM. `CCCS(=O)(=O)Nc1ccc2c(c1)N(S(C)(=O)=O)CCC2`: the CC50 was over 100 µM.

`CCCCS(=O)(=O)Nc1ccc2c(c1)N(S(C)(=O)=O)CCC2` came in with a CC50 of over 100 µM.

A further experiment addresses NACHT, LRR and PYD domains-containing protein 3 (Homo sapiens, UniProt Q96P20).
Description: Inhibition of NLRP3 inflammasome activation in LPS primed human differentiated THP-M cells derived PMA induced THP-1 cells assessed as inhibition of IL-1 beta level preincubated with compound for 24 hrs followed by LPS stimulation for 3 hrs and further incubated with ATP for 1 hr by ELISA method
`O=C(O)c1ccc(/C=C2\SC(=S)N(Cc3cccc(C(F)(F)F)c3)C2=O)cc1`: the IC50 stood at 5.33 µM.
